# Experimental data reported in ChEMBL document CHEMBL1201862, “PubChem BioAssay data set” (2004).
#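 Cultured in 96-well plates, cells were exposed to test compound for 48 hours across five concentrations. At the GI50, growth is halved.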 Activity calls are given as the source filed them. Rule as the data show it: active = GI50 up to about 1.1 µM and inactive = higher.
# Legend:
# Assay in all cases: inhibition of tumour cell growth, NCI panel, 48 h
# XF498 = test system: XF498
# SF-539 = test system: SF-539
# NCI-H460 = test system: NCI-H460
# UO-31 = test system: UO-31
# OVCAR-3 = test system: OVCAR-3
# CAKI-1 = test system: CAKI-1
# HCT-15 = test system: HCT-15
# SW-620 = test system: SW-620
# OVCAR-4 = test system: OVCAR-4
# DMS-114 = test system: DMS-114
# IGROV-1 = test system: IGROV-1
# HCT-116 = test system: HCT-116
# DMS-273 = test system: DMS-273
# 786-0 = test system: 786-0
# HOP-18 = test system: HOP-18
# NCI-H522 = test system: NCI-H522
# UACC-257 = test system: UACC-257
# SK-MEL-5 = test system: SK-MEL-5
# HT-29 = test system: HT-29
# A498 = test system: A498
# UACC-62 = test system: UACC-62
# KM12 = test system: KM12
# SNB-19 = test system: SNB-19
# Malme-3M = test system: Malme-3M
# LOX IMVI = test system: LOX IMVI
# MOLT-4 = test system: MOLT-4
# NCI-H23 = test system: NCI-H23
# CCRF-CEM = test system: CCRF-CEM
# RXF 631 = test system: RXF 631
# LXFL 529 = test system: LXFL 529
# K562 = test system: K562
# RPMI-8226 = test system: RPMI-8226
# OVCAR-5 = test system: OVCAR-5
# SN12C = test system: SN12C
# KM-20L2 = test system: KM-20L2
# U-251 = test system: U-251
# EKVX = test system: EKVX
# A549 = test system: A549
# SK-MEL-28 = test system: SK-MEL-28
# TK-10 = test system: TK-10
# OVCAR-8 = test system: OVCAR-8
# SNB-78 = test system: SNB-78
# SK-MEL-2 = test system: SK-MEL-2
# SK-OV-3 = test system: SK-OV-3
# SF-268 = test system: SF-268
# DLD-1 = test system: DLD-1
# M14 = test system: M14
# SNB-75 = test system: SNB-75
# M19-MEL = test system: M19-MEL
# HOP-92 = test system: HOP-92
# ACHN = test system: ACHN
# NCI-H226 = test system: NCI-H226
# COLO 205 = test system: COLO 205
# RXF 393 = test system: RXF 393
# SR = test system: SR
# HCC 2998 = test system: HCC 2998
# HOP-62 = test system: HOP-62
# SF-295 = test system: SF-295
# HL-60 = test system: HL-60
smiles,measurement,setting,value
O=C(N/C(=C\c1ccc(Br)cc1)c1nc2ccccc2s1)c1ccccc1,GI50,XF498,> 100 µM (inactive)
same,GI50,SF-539,88.9 µM (inactive)
same,GI50,NCI-H460,85.1 µM (inactive)
same,GI50,UO-31,40.3 µM (inactive)
same,GI50,OVCAR-3,> 100 µM (inactive)
same,GI50,CAKI-1,> 100 µM (inactive)
same,GI50,HCT-15,46.1 µM
same,GI50,SW-620,> 100 µM (inactive)
same,GI50,OVCAR-4,30.8 µM (inactive)
same,GI50,DMS-114,46.5 µM (inactive)
same,GI50,IGROV-1,75.2 µM (inactive)
same,GI50,HCT-116,53 µM (inactive)
same,GI50,DMS-273,91.6 µM (inactive)
same,GI50,786-0,> 100 µM (inactive)
same,GI50,HOP-18,> 100 µM (inactive)
same,GI50,NCI-H522,32 µM (inactive)
same,GI50,UACC-257,> 100 µM (inactive)
same,GI50,SK-MEL-5,36 µM (inactive)
same,GI50,HT-29,69.2 µM (inactive)
same,GI50,A498,90.8 µM (inactive)
same,GI50,UACC-62,71 µM (inactive)
same,GI50,KM12,> 100 µM (inactive)
same,GI50,SNB-19,47 µM (inactive)
same,GI50,Malme-3M,> 100 µM (inactive)
same,GI50,LOX IMVI,65.2 µM (inactive)
same,GI50,MOLT-4,29.9 µM (inactive)
same,GI50,NCI-H23,25.5 µM (inactive)
same,GI50,CCRF-CEM,21.5 µM (inactive)
same,GI50,RXF 631,87.3 µM (inactive)
same,GI50,LXFL 529,54.5 µM (inactive)
same,GI50,K562,51.4 µM (inactive)
same,GI50,RPMI-8226,32.5 µM (inactive)
same,GI50,OVCAR-5,> 100 µM (inactive)
same,GI50,SN12C,> 100 µM (inactive)
same,GI50,KM-20L2,> 100 µM (inactive)
same,GI50,U-251,56 µM (inactive)
same,GI50,EKVX,37.5 µM (inactive)
same,GI50,A549,61.4 µM (inactive)
same,GI50,SK-MEL-28,> 100 µM (inactive)
same,GI50,TK-10,> 100 µM (inactive)
same,GI50,OVCAR-8,89.9 µM (inactive)
same,GI50,SNB-78,> 100 µM (inactive)
same,GI50,SK-MEL-2,> 100 µM (inactive)
same,GI50,SK-OV-3,> 100 µM (inactive)
same,GI50,SF-268,36.2 µM (inactive)
same,GI50,DLD-1,46.9 µM (inactive)
same,GI50,M14,> 100 µM (inactive)
same,GI50,SNB-75,> 100 µM (inactive)
same,GI50,M19-MEL,70.3 µM (inactive)
same,GI50,HOP-92,38.2 µM (inactive)
same,GI50,ACHN,76.9 µM (inactive)
same,GI50,NCI-H226,> 100 µM (inactive)
same,GI50,COLO 205,> 100 µM (inactive)
same,GI50,RXF 393,43.4 µM (inactive)
COc1cc(/C=C2\CCc3ccccc3C2=O)cc(OC)c1OC,GI50,XF498,17.9 µM (inactive)
same,GI50,SF-539,16.9 µM (inactive)
same,GI50,SR,3.86 µM (inactive)
same,GI50,NCI-H460,16.9 µM (inactive)
same,GI50,UO-31,16.8 µM (inactive)
same,GI50,HCC 2998,18 µM (inactive)
same,GI50,OVCAR-3,15.8 µM (inactive)
same,GI50,CAKI-1,16.1 µM (inactive)
same,GI50,HCT-15,17.3 µM
same,GI50,SW-620,16.6 µM (inactive)
same,GI50,OVCAR-4,23.9 µM (inactive)
same,GI50,DMS-114,12.5 µM (inactive)
same,GI50,HCT-116,14.1 µM (inactive)
same,GI50,DMS-273,11.9 µM (inactive)
same,GI50,786-0,15.7 µM (inactive)
same,GI50,HOP-18,13.6 µM (inactive)
same,GI50,NCI-H522,14.8 µM (inactive)
same,GI50,UACC-257,14.3 µM (inactive)
same,GI50,SK-MEL-5,12.6 µM (inactive)
same,GI50,HT-29,17.5 µM (inactive)
same,GI50,HOP-62,21.5 µM (inactive)
same,GI50,UACC-62,14.3 µM (inactive)
same,GI50,KM12,13.6 µM (inactive)
same,GI50,SNB-19,15.8 µM (inactive)
same,GI50,Malme-3M,16.4 µM (inactive)
same,GI50,LOX IMVI,11.9 µM (inactive)
same,GI50,MOLT-4,9.4 µM (inactive)
same,GI50,NCI-H23,15.7 µM (inactive)
same,GI50,CCRF-CEM,4.89 µM (inactive)
same,GI50,RXF 631,22.4 µM (inactive)
same,GI50,LXFL 529,15.2 µM (inactive)
same,GI50,K562,8.43 µM (inactive)
same,GI50,RPMI-8226,3.92 µM (inactive)
same,GI50,OVCAR-5,14.4 µM (inactive)
same,GI50,SN12C,18 µM (inactive)
same,GI50,KM-20L2,17.2 µM (inactive)
same,GI50,U-251,16.1 µM (inactive)
same,GI50,EKVX,17.9 µM (inactive)
same,GI50,A549,20.9 µM (inactive)
same,GI50,SK-MEL-28,15.1 µM (inactive)
same,GI50,TK-10,17.8 µM (inactive)
same,GI50,SF-295,15 µM (inactive)
same,GI50,OVCAR-8,16.2 µM (inactive)
same,GI50,HL-60,10.7 µM (inactive)
same,GI50,SNB-78,24 µM (inactive)
same,GI50,SK-MEL-2,15.8 µM (inactive)
same,GI50,SK-OV-3,18.6 µM (inactive)
same,GI50,SF-268,16.4 µM (inactive)
same,GI50,DLD-1,13.8 µM (inactive)
same,GI50,M14,16.2 µM (inactive)
same,GI50,SNB-75,22.2 µM (inactive)
same,GI50,M19-MEL,15.9 µM (inactive)
same,GI50,HOP-92,11.1 µM (inactive)
same,GI50,ACHN,15.8 µM (inactive)
same,GI50,NCI-H226,18.6 µM (inactive)
same,GI50,COLO 205,17 µM (inactive)
same,GI50,RXF 393,14.6 µM (inactive)
